# According to patent US8937167B2 (Washington University, priority 2009, dated 2015):
# Where two headings read alike, the source gives them in different places.
# Target: FimH (Escherichia coli, UniProt Q1R2J4)
# Conditions: for HAI Titer EC>50: Table 21
# 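Further: hemagglutination inhibition of guinea pig erythrocytes agglutinated by type 1 piliated uropathogenic E. coli via FimH mannose binding, quantified through serial dilutions of compound.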
# Experimental: In some embodiments, activity of the compound is measured using hemmagglutination titer of guinea pig red blood cells. Hemagglutination of guinea pig red blood cells by type1 piliated UPEC is dependent upon FimH mannose binding ability and serial dilutions allow a quantitative analysis.
# Biological activity against FimH was evaluated using a guinea pig red blood cell-based hemagglutination (HA) assay (ref) in which the concentration of the mannoside on reducing agglutination by 50% was used as the primary endpoint (50% HA titer).
# Hemagglutination of guinea pig red blood cells by type1 piliated UPEC is dependent upon FimH mannose binding ability. Serial dilutions allow a quantitative analysis using this assay.
# Hemagglutination assays for mannose-sensitive agglutination of guinea pig red blood cells were performed as previously described.
Structure (SMILES),HAI Titer EC>90 [mM],other results
CNC(=O)c1cncc(-c2ccc(OC3OC(CO)C(O)C(O)C3O)cc2)c1 (centres unmarked),0.0005,
"NC1C(O)C(CO)OC(OCc2ccccc2)C1O [Benzyl 3-amino-3-deoxy-a-D-mannoside, reference compound]",,HAI Titer EC>90 (mM): >1 mM
COC(=O)COC1OC(CO)C(O)C(O)C1O (centres unmarked) [Compound 1ZFH74],,HAI Titer EC>50 (ZFH/JWJ codes): 500.000 µM
"CC(=O)Nc1ccccc1OC1OC(CO)C(O)C(O)C1O (centres unmarked) [Compound 1ZFH95, N-[2-[3,4,5-trihydroxy-6-(hydroxymethyl)tetrahydropyran-2-yl]oxyphenyl]acetamide]",0.125,
"COC(=O)c1cccc(OC2OC(CO)C(O)C(O)C2O)c1 (centres unmarked) [Compound 1ZFH101, methyl 3-[3,4,5-trihydroxy-6-(hydroxymethyl)tetrahydropyran-2-yl]oxybenzoate]",0.006,
"O=C(NCCCCOC1OC(CO)C(O)C(O)C1O)c1ccc(C(=O)O)c(-c2c3ccc(=O)cc-3oc3cc(O)ccc23)c1 (centres unmarked) [Compound 1ZFH134A, 2-(3-hydroxy-6-oxo-xanthen-9-yl)-4-[4-[3,4,5-trihydroxy-6-(hydroxymethyl)tetrahydropyran-2-yl]oxybutylcarbamoyl]benzoic acid]",0.125,
"O=C(NCCCCOC1OC(CO)C(O)C(O)C1O)c1ccc(-c2c3ccc(=O)cc-3oc3cc(O)ccc23)c(C(=O)O)c1 (centres unmarked) [Compound 1ZFH134B, 2-(3-hydroxy-6-oxo-xanthen-9-yl)-5-[4-[3,4,5-trihydroxy-6-(hydroxymethyl)tetrahydropyran-2-yl]oxybutylcarbamoyl]benzoic acid]",0.125,
O=C(NCCCCOC1OC(CO)C(O)C(O)C1O)c1ccc(-c2c3ccc(=O)cc-3oc3cc(O)ccc23)c(C(=O)O)c1 (centres unmarked) [Compound 1ZFH134],,HAI Titer EC>50 (ZFH/JWJ codes): 125.000 µM
"O=[N+]([O-])c1ccc(COC2OC(CO)C(O)C(O)C2O)cc1 (centres unmarked) [Compound 1ZFH152, 2-(hydroxymethyl)-6-[(4-nitrophenyl)methoxy]tetrahydropyran-3,4,5-triol]",0.06,
"OCC1OC(Oc2ccc3ccccc3c2)C(O)C(O)C1O (centres unmarked) [Compound 1ZFH185, 2-(hydroxymethyl)-6-(2-naphthyloxy)tetrahydropyran-3,4,5-triol]",0.006,
"COC(=O)Cc1cc(OC2OC(CO)C(O)C(O)C2O)ccc1O (centres unmarked) [Compound 1ZFH187, methyl 2-[2-hydroxy-5-[3,4,5-trihydroxy-6-(hydroxymethyl)tetrahydropyran-2-yl]oxy-phenyl]acetate]",0.015,
"O=C(c1ccccc1)c1cccc(OC2OC(CO)C(O)C(O)C2O)c1 (centres unmarked) [Compound 1ZFH263, phenyl-[3-[3,4,5-trihydroxy-6-(hydroxymethyl)tetrahydropyran-2-yl]oxyphenyl]methanone]",0.008,
"COC(=O)c1ccc(-c2cccc(OC3OC(CO)C(O)C(O)C3O)c2)cc1 (centres unmarked) [Compound 1ZFH265, methyl 4-[3-[3,4,5-trihydroxy-6-(hydroxymethyl)tetrahydropyran-2-yl]oxyphenyl]benzoate]",0.006,
"OCC1OC(Oc2cc(C(F)(F)F)cc(C(F)(F)F)c2)C(O)C(O)C1O (centres unmarked) [Compound 1ZFH274, 2-[3,5-bis(trifluoromethyl)phenoxy]-6-(hydroxymethyl)tetrahydropyran-3,4,5-triol]",0.032,
"OCC1OC(Oc2cc(F)c(F)c(F)c2)C(O)C(O)C1O (centres unmarked) [Compound 1ZFH282, 2-(hydroxymethyl)-6-(3,4,5-trifluorophenoxy)tetrahydropyran-3,4,5-triol]",0.125,
"OCC1OC(Oc2ccc(Br)cc2)C(O)C(O)C1O (centres unmarked) [Compound 2ZFH46, 2-(4-bromophenoxy)-6-(hydroxymethyl)tetrahydropyran-3,4,5-triol]",0.032,
"O=[N+]([O-])c1cccc(OC2OC(CO)C(O)C(O)C2O)c1 (centres unmarked) [Compound 2ZFH100, 2-(hydroxymethyl)-6-(3-nitrophenoxy)tetrahydropyran-3,4,5-triol]",0.016,
"N#Cc1ccccc1OC1OC(CO)C(O)C(O)C1O (centres unmarked) [Compound 2ZFH108, 2-[3,4,5-trihydroxy-6-(hydroxymethyl)tetrahydropyran-2-yl]oxybenzonitrile]",0.006,
"Cc1ccc(OC2OC(CO)C(O)C(O)C2O)cc1 (centres unmarked) [Compound 2ZFH175, 2-(hydroxymethyl)-6-(4-methylphenoxy)tetrahydropyran-3,4,5-triol]",0.008,
"COc1ccc(OC2OC(CO)C(O)C(O)C2O)cc1 (centres unmarked) [Compound 2ZFH176, 2-(hydroxymethyl)-6-(4-methoxyphenoxy)tetrahydropyran-3,4,5-triol]",0.008,
"OCC1OC(Oc2ccccc2Cl)C(O)C(O)C1O (centres unmarked) [Compound 2ZFH180, 2-(2-chlorophenoxy)-6-(hydroxymethyl)tetrahydropyran-3,4,5-triol]",0.004,

Structure (SMILES),HAI Titer EC>90 [mM],other results
"OCC1OC(Oc2cccc(Cl)c2)C(O)C(O)C1O (centres unmarked) [Compound 2ZFH181, 2-(3-chlorophenoxy)-6-(hydroxymethyl)tetrahydropyran-3,4,5-triol]",0.008,
"O=C(NCCCCCCCCNC(=O)c1cccc(-c2ccc(OC3OC(CO)C(O)C(O)C3O)cc2)c1)c1cccc(-c2ccc(OC3OC(CO)C(O)C(O)C3O)cc2)c1 (centres unmarked) [Compound 2ZFH234, 3-[4-[3,4,5-trihydroxy-6-(hydroxymethyl)tetrahydropyran-2-yl]oxyphenyl]-N-[8-[[3-[4-[3,4,5-trihydroxy-6-(hydroxymethyl)tetrahydropyran-2-yl]oxyphenyl]benzoyl]amino]octyl]benzamide]",0.002,
COC(=O)c1cccc(-c2ccc(OC3OC(CO)C(O)C(O)C3O)cc2)c1 (centres unmarked) [Compound 2ZFH238],,HAI Titer EC>50: >2500 µM
"COC(=O)c1cccc(-c2ccc(OC3OC(CO)C(O)C(O)C3O)cc2C(=O)OC)c1 (centres unmarked) [Compound 2ZFH244, methyl 2-(3-methoxycarbonyl-phenyl)-5-[3,4,5-trihydroxy-6-(hydroxymethyl)tetrahydropyran-2-yl]oxy-benzoate]",0.001,
"CNC(=O)c1cccc(-c2ccc(OC3OC(CO)C(O)C(O)C3O)cc2C(=O)OC)c1 (centres unmarked) [Compound 2ZFH265, methyl 2-[3-(methylcarbamoyl)phenyl]-5-[3,4,5-trihydroxy-6-(hydroxymethyl)tetrahydropyran-2-yl]oxy-benzoate]",0.002,
"CNC(=O)c1cccc(-c2ccc(OC3OC(CO)C(O)C(O)C3O)cc2C(=O)NC)c1 (centres unmarked) [Compound 2ZFH266, N-methyl-2-[3-(methylcarbamoyl)phenyl]-5-[3,4,5-trihydroxy-6-(hydroxymethyl)tetrahydropyran-2-yl]oxy-benzamide]",0.012,
"COC(=O)c1cc2cc(OC3OC(CO)C(O)C(O)C3O)ccc2s1 (centres unmarked) [Compound 2ZFH297, methyl 5-[3,4,5-trihydroxy-6-(hydroxymethyl)tetrahydropyran-2-yl]oxybenzothiophene-2-carboxylate]",0.002,
"COC(=O)c1cc2ccc(OC3OC(CO)C(O)C(O)C3O)cc2s1 (centres unmarked) [Compound 2ZFH304, methyl 6-[3,4,5-trihydroxy-6-(hydroxymethyl)tetrahydropyran-2-yl]oxybenzothiophene-2-carboxylate]",0.002,
"OCc1cccc(-c2ccc(OC3OC(CO)C(O)C(O)C3O)cc2)c1 (centres unmarked) [Compound 3ZFH18, 2-(hydroxymethyl)-6-[4-[3-(hydroxymethyl)phenyl]phenoxy]tetrahydropyran-3,4,5-triol]",0.003,
"OCc1ccc(-c2ccc(OC3OC(CO)C(O)C(O)C3O)cc2)cc1 (centres unmarked) [Compound 3ZFH24, 2-(hydroxymethyl)-6-[4-[4-(hydroxymethyl)phenyl]phenoxy]tetrahydropyran-3,4,5-triol]",0.006,
"OCC1OC(Oc2ccc(-c3cccc(O)c3)cc2)C(O)C(O)C1O (centres unmarked) [Compound 3ZFH44, 2-(hydroxymethyl)-6-[4-(3-hydroxyphenyl)phenoxy]tetrahydropyran-3,4,5-triol]",0.004,
"N#Cc1ccccc1-c1ccc(OC2OC(CO)C(O)C(O)C2O)cc1 (centres unmarked) [Compound 3ZFH64, 2-[4-[3,4,5-trihydroxy-6-(hydroxymethyl)tetrahydropyran-2-yl]oxyphenyl]benzonitrile]",0.002,
"NC(=O)c1ccccc1-c1ccc(OC2OC(CO)C(O)C(O)C2O)cc1 (centres unmarked) [Compound 3ZFH66, 2-[4-[3,4,5-trihydroxy-6-(hydroxymethyl)tetrahydropyran-2-yl]oxyphenyl]benzamide]",0.006,
"N#Cc1cccc(-c2ccc(OC3OC(CO)C(O)C(O)C3O)cc2)c1 (centres unmarked) [Compound 3ZFH68, 3-[4-[3,4,5-trihydroxy-6-(hydroxymethyl)tetrahydropyran-2-yl]oxyphenyl]benzonitrile]",0.001,
"N#Cc1ccc(-c2ccc(OC3OC(CO)C(O)C(O)C3O)cc2)cc1 (centres unmarked) [Compound 3ZFH70, 4-[4-[3,4,5-trihydroxy-6-(hydroxymethyl)tetrahydropyran-2-yl]oxyphenyl]benzonitrile]",0.008,
"O=[N+]([O-])c1ccc(-c2ccc(OC3OC(CO)C(O)C(O)C3O)cc2)cc1 (centres unmarked) [Compound 3ZFH72, 2-(hydroxymethyl)-6-[4-(4-nitrophenyl)phenoxy]tetrahydropyran-3,4,5-triol]",0.002,
"OCC1OC(Oc2ccc(-c3cccnc3)cc2)C(O)C(O)C1O (centres unmarked) [Compound 3ZFH93, 2-(hydroxymethyl)-6-[4-(3-pyridyl)phenoxy]tetrahydropyran-3,4,5-triol]",0.002,
"OCC1OC(Oc2ccc(-c3ccncc3)cc2)C(O)C(O)C1O (centres unmarked) [Compound 3ZFH96, 2-(hydroxymethyl)-6-[4-(4-pyridyl)phenoxy]tetrahydropyran-3,4,5-triol]",0.002,
"OCC1OC(Oc2ccc(-c3ccccc3O)cc2)C(O)C(O)C1O (centres unmarked) [Compound 3ZFH111, 2-(hydroxymethyl)-6-[4-(2-hydroxyphenyl)phenoxy]tetrahydropyran-3,4,5-triol]",0.008,
"OCc1ccccc1-c1ccc(OC2OC(CO)C(O)C(O)C2O)cc1 (centres unmarked) [Compound 3ZFH114, 2-(hydroxymethyl)-6-[4-[2-(hydroxymethyl)phenyl]phenoxy]tetrahydropyran-3,4,5-triol]",0.016,
